Assay [1] relates to healthy post-menopausal women. In words: 8-week parallel, double-blind, placebo study: markers of bone metabolism (GGGC). Conditions: 8 weeks. It counts as in vivo, human. Here is the method:
(§1) An 8-week parallel, double-blind, placebo study in approximately 160 healthy post-menopausal women was completed. The doses of raloxifene used in this study were 10, 50, and 200 mg. […] (See Table I) Because of development over time seen with many bone markers, a raloxifene dose of 50 mg/day will likely be fully active when evaluated during a study of longer duration.

The subject of assay [2] is healthy post-menopausal women. In words: 8-week parallel, double-blind, placebo study: serum lipids (GGGC). It counts as in vivo, human. Conditions: 8 weeks. Here is the method: as §1
Serum lipid levels were affected by raloxifene doses of 50 and 200 mg (Table II).

Data on one compound can be found in USRE39050E1, “Methods of use for inhibiting bone loss and lowering serum cholesterol” (Eli Lilly and Company, priority 1994, dated 2006).

Counter-ions that a name gives are not always drawn. Marks after values point to notes of the source that are not given here.

As for `O=C(c1ccc(OCCN2CCCCC2)cc1)c1c(-c2ccc(O)cc2)sc2cc(O)ccc12` [Raloxifene, 6-hydroxy-2-(4-hydroxyphenyl)-3[4-(2-piperidinoethoxy)benzoyl]benzo[b]thiophene, hydrochloride], the “activity with either bone marker (in words)” value in assay [1] (10 mg dose) is listed as “no significant activity”. Also, in assay [1] (raloxifene 10 mg, n = 42), the “Serum alkaline phosphatase, mean group change from baseline to endpoint” value worked out at 0.21 U/L and the “Serum osteocalcin, mean group change from baseline to endpoint” value (“Serum osteocalcin, mean group change” for short) is -0.27 ng/mL. Besides, in assay [1] (raloxifene 50 mg, n = 42), the “Serum alkaline phosphatase, mean group change from baseline to endpoint” value is reported as −4.78 U/L and the “Serum osteocalcin, mean group change” value is -0.81 ng/mL. Also, in assay [1] (raloxifene 200 mg, n = 41), the “Serum alkaline phosphatase, mean group change from baseline to endpoint” value is reported as −5.93* U/L and the “Serum osteocalcin, mean group change” value is −1.21* ng/mL. Besides, in assay [2] (50 mg), the “LDL cholesterol (in words)” value is given as “Decreases”. In addition, in assay [2] (200 mg), the “LDL cholesterol (in words)” value is “comparable decrease”. Further, in assay [2] (both the 50 and 200 mg doses), the “HDL:LDL ratios (in words)” value is given as “Statistically significant decreases” and the “total serum cholesterol levels (in words)” value is “Statistically significant decreases”. Also, in assay [2] (raloxifene 10 mg, n = 42), the “HDL-C, mean group change from baseline to endpoint” value (“HDL-C, mean group change” for short) was 0.01 mmol/L; the “HDL-C:LDL-C ratio, mean group change from baseline to endpoint” value (“HDL-C:LDL-C ratio, mean group change” for short) worked out at 0.00; the “LDL-C, mean group change from baseline to endpoint” value (“LDL-C, mean group change” for short) was found to be 0.05 mmol/L; the “Toal cholesterol, mean group change from baseline to endpoint” value (“Toal cholesterol, mean group change” for short) was found to be 0.01 mmol/L. In addition, in assay [2] (raloxifene 50 mg, n = 42), the “HDL-C, mean group change” value is listed as 0.04 mmol/L; the “HDL-C:LDL-C ratio, mean group change” value is 0.03*; the “LDL-C, mean group change” value is −0.23* mmol/L; the “Toal cholesterol, mean group change” value is −0.23* mmol/L. In assay [2] (raloxifene 200 mg, n = 41), the “HDL-C, mean group change” value was 0.02 mmol/L; the “HDL-C:LDL-C ratio, mean group change” value is reported as 0.03*; the “LDL-C, mean group change” value is -0.17 mmol/L; the “Toal cholesterol, mean group change” value is -0.15 mmol/L. For the same compound, in assay [2] (raloxifene-treated subjects), the “HDL levels (in words)” value is “no changes”.
